Numbers after ± are expanded uncertainties.
Settings: 101.33 kPa, Liquid, Hot disk method

| thermal conductivity (298.15 K) | thermal conductivity (303.15 K) | thermal conductivity (308.15 K) | thermal conductivity (313.15 K) | thermal conductivity (318.15 K) | thermal conductivity (323.15 K) | SMILES |
| --- | --- | --- | --- | --- | --- | --- |
| 0.2514 ± 0.0074 W/m/K | 0.2535 ± 0.0061 W/m/K | 0.2551 ± 0.012 W/m/K | 0.2559 ± 0.0076 W/m/K | 0.2568 ± 0.011 W/m/K | 0.2579 ± 0.011 W/m/K | OCCO [1,2-ethanediol] |
| 0.6132 ± 0.011 W/m/K | 0.6201 ± 0.012 W/m/K | 0.6249 ± 0.012 W/m/K | 0.6302 ± 0.013 W/m/K | 0.6368 ± 0.011 W/m/K | 0.6427 ± 0.014 W/m/K | O [water] |
